{"source": "paper PMC5790279", "about": "“Identification of novel leishmanicidal molecules by virtual and biochemical screenings targeting Leishmania eukaryotic translation initiation factor 4A” (PLoS Neglected Tropical Diseases, 2018)", "key": {"[1]": {"test_system": "intracellular L. donovani amastigotes", "design": "method as in PMID 16949702", "conditions": "at 1.94 μM; cited from earlier work"}, "[2]": {"target": "T1, LieIF (Leishmania infantum, UniProt A4HRK0)", "T1 construct": "His tag; made in house; host or cells: Escherichia coli Rosetta (Novagen)", "T1 sequence (A4HRK0 1-403)": "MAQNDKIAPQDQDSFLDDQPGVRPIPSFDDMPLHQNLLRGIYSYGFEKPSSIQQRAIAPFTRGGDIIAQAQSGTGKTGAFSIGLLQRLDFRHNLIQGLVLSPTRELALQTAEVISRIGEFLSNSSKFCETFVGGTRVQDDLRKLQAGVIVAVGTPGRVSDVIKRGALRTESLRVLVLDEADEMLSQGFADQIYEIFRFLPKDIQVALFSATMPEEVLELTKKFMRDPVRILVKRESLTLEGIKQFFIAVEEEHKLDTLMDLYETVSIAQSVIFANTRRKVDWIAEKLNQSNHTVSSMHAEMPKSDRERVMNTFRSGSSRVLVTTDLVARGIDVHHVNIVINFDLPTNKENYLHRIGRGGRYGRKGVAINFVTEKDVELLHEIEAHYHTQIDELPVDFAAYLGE", "experiment": "Malachite green RNA-dependent ATPase assay of LieIF", "format": "biochemical", "conditions": "for effect on the ATPase activity of LieIF in screen: screened at 500 μM", "description": "(§1) The Rosetta Escherichia coli strain (Novagen) was used for the expression of His-tagged recombinant LieIF and mouse eIF4AI (eIF4AIMus) proteins using already described constructs. Protein expression was performed as previously described, except that cultures were induced with 0.5 mM IPTG. Cells were collected by centrifugation and stored at -20°C until needed. Pellets were resuspended in 10 ml of buffer A (Tris-HCl, pH 7.5, 300 mM NaCl) supplemented with 10 mM imidazole and 0.02% NP40 (lysis buffer). Lysozyme (10 μg/ml, Sigma-Aldrich, St. Louis, MO, USA) and 1x of complete protease inhibitor EDTA-free cocktail (Roche, Indianapolis, USA) were added. The mixtures were kept on ice for 30 min. Then, cells were ruptured by sonication four times for 20 seconds with a Cell Disruptor W375 (Heat System-Ultrasonic, Plainview, N.Y., USA) using a microprobe at a setting of 5 and a duty cycle of 60%. The material was centrifuged for 30 min at 15,000 rpm in a JA-20 rotor (Beckman Coulter, Villepinte, France) at 4°C, and the supernatant was loaded onto a 1 ml nickel-nitrilotriacetic acid (Ni-NTA) agarose column (Ni-NTA, Qiagen, Hilden, Germany) equilibrated with the lysis buffer. The column was washed with 20 ml buffer A supplemented with 25 mM imidazole and 0.02% NP40 (wash buffer 1), and then with 20 ml buffer A supplemented with 25 mM imidazole (wash buffer 2). Proteins were eluted with buffer A supplemented with 100 mM imidazole (elution buffer). The purity of the proteins was checked on 12% SDS-PAGE gels that were stained with Coomassie blue. Purified proteins were stored at -80°C after making 50% in glycerol (w/w). The proteins concentrations were determined using the Bio-Rad Protein Dye Assay (Biorad, Munich, Germany).\n(§2) We used a colorimetric assay based on Malachite green as previously described. We optimized the previously published conditions for the LieIF and eIF4AIMus ATPase assays to fit microtiter plates and the screening conditions by varying the quantities of proteins, ATP and magnesium acetate, and by testing different sources and concentrations of RNA. Each reaction was done in 50 μl. The final reaction buffers contained 50 mM potassium acetate, 20 mM MES, pH 6, either 5 mM or 1 mM magnesium acetate for LieIF or eIF4AIMus respectively, 2 mM dithiothreitol (DTT), 0.1 mg/ml bovine serum albumin (BSA) and 0.34 mg/ml whole yeast RNA (Type XI, Sigma). Reactions were incubated at 37°C for various times up to 45 min, and were stopped by adding 5 μl of 0.5 M ethylenediaminetetraacetic acid (EDTA) at pH 8. In experiments testing the compounds, samples dissolved in DMSO were added to the reaction in different concentrations. The final concentration of DMSO in the reaction was 10% (v/v). The reaction rates were determined by a linear regression fit of the initial, linear phase of the curves. Reaction rates were determined in three independent experiments for each compound concentration. Data were analyzed with Kaleidagraph (Synergy).\nThe Z’-factor is a statistical parameter used to measure the quality of a screening assay. For the biochemical screening, reactions were done with and without proteins as positive and negative controls, respectively. All assay conditions were identical to those described above. Positive controls were designed to replicate a positive hit in an inhibitor screen. Negative controls were designed as no enzymatic reactions. The phosphate released was measured after 45 min. Statistical analysis was performed using the equation: Z^′=1-3*(σ^++σ^-)/(μ^+-μ^-) (2) where μ^− and σ^− correspond to the mean absorbance and standard deviations respectively, for each reaction without enzyme (no activity), and μ^+ and σ^+ are the mean absorbance and standard deviations, respectively, for reaction wells in the presence of enzyme. The Z’-factor values above 0.5 were considered significant and corresponding plates were retained. […]"}, "[3]": {"target": "T2, eIF4AIMus (Mus musculus, UniProt P60843)", "T2 construct": "His tag; made in house; host or cells: Escherichia coli Rosetta (Novagen)", "T2 sequence (P60843 whole entry)": "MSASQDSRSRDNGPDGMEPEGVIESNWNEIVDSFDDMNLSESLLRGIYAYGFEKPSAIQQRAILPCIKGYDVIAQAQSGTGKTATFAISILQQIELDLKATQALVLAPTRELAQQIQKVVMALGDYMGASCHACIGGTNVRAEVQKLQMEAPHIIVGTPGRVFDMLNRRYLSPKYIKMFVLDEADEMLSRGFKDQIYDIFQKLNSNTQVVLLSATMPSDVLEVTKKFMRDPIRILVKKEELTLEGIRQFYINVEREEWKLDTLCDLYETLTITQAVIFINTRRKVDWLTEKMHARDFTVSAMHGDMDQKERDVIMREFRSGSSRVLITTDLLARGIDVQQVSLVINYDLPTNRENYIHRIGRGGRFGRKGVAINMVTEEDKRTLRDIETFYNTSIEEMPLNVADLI", "experiment": "Malachite green RNA-dependent ATPase assay of eIF4AIMus", "format": "biochemical", "conditions": "for effect on the ATPase activity of eIF4AIMus in screen: screened at 500 μM", "description": "as §1, §2\nBiochemical screening experiments were performed in 96-well plates. Column 1 and 12 contained full signal controls (no inhibitor) and background controls (no enzyme): wells A1 to D1 and E12 to H12 corresponded to negative controls; E1 to H1 and A12 to D12 corresponded to positive controls. Compounds were added in columns 2 to 11, at a 500 μM final concentration. ATPase test reactions were done in three independent experiments. The phosphate released was measured after 45 min. Results were reported as weighted means. Z’-scores were calculated for each plate from the full signal and background controls. Plates with Z’-values below 0.5 were discarded. The inhibition of ATPase activity was calculated as follow: [85] Percentageofinhibition=(μ^+-OD630nmforcompoundX)/(μ^+-μ^-)*100 (3) Selected hits were further tested with kinetic assays. Results were reported as ATPase reaction velocities. […]"}, "[4]": {"test_system": "L. infantum promastigotes", "experiment": "MTT viability assay on promastigotes", "format": "cell-based", "conditions": "Leishmania infantum, stationary phase promastigotes, 24h exposure", "procedure": "The effect of the selected chemical compounds on the viability of L. infantum promastigotes was evaluated by a colorimetric MTT (3-(4,5-dimethylthiazol-2yl)-2,5-diphenyl tetrazolium bromide) assay that consisted in a reduction of tetrazolium salt to a soluble crystal (blue formazan) by the succinate dehydrogenase activity of mitochondria in living cells, which can be quantified by spectrophotometry as previously described. […] Briefly, 90 μl of promastigotes harvested from the stationary growth phase were added to a 96-well culture plate (5 × 10^5 cells/well) with 10 μl of various concentrations of the selected compounds (to obtain a final concentration of 1.5-100 μM) and incubated at 25°C for 24h. After incubation, 20 μl of MTT solution (5 mg/ml) were added to each well and incubated at 25°C for 4h. Then, 150 μl of DMSO was added to each well to dissolve the blue formazan and the optical density (OD) was measured at 560 nm with a microplate reader ([sequence], Labsystems). Mock treated-promastigotes in complete medium (with no drug, 1% DMSO) were used as positive control. Stock solutions of the compounds prepared for these experiments contained 100% DMSO. All subsequent dilutions were freshly made with RPMI 1640 (final concentration of 10% DMSO). Thus, all compounds, as well as the positive control, were tested at a final concentration of 1% DMSO per well.\nThe promastigotes viability was expressed as the percentage of the viable promastigotes in treated conditions relative to the 1% DMSO mock-treated promastigotes. The IC50 values were calculated for all the tested compounds by interpolation. […] All experiments were repeated three times in triplicate for each compound concentration. Absorbance measured was used to reflect promastigote or cell viability using the following formula: %cellviability=[(ODtest-ODblank)/(ODcontrol-ODblank)]*100 (4)"}, "[5]": {"test_system": "L. infantum intramacrophage amastigotes", "experiment": "Macrophage infection assay, intramacrophage amastigotes", "format": "cell-based, Leishmania infantum", "conditions": "infected THP-1-derived macrophages, 24h exposure", "description": "[86] […] [87] […] [87]\nAfter careful washing of PMA-treated THP-1 cells (50,000 cells/well) with warm serum-free RPMI-1640 (∼ 37°C) media, 50 μl of the diluted L. infantum promastigote culture were added at the optimized MOI (10:1). Control wells of THP-1 cells without the parasites, and THP-1 cells with the parasites, were set up in each 8-well Labtek slides. The slides were incubated at 37°C, 5% CO2 overnight. After incubation, infected wells were washed at least 3 times with serum-free RPMI-1640 media to ensure complete removal of non-engulfed promastigotes, and then they were incubated in presence of different concentrations of compounds for 24 h. Control groups were incubated in supplemented RPMI medium containing 1% DMSO. Cells were then fixed and stained with RAL 555 rapid stain kit (May-Grünwald Type) (Cell Path, Newtown, UK) following the manufacturer’s instructions. The number of infected cells per 100 macrophages and the total number of parasites per 100 cells observed were determined by light microscopy under immersion oil (1000X) by counting at least 100 cells per well. Three independent experiments were conducted for each compound concentration. These values allowed us to determine the mean values and standard deviations of the percentage of infected cells and the mean amastigote number per cell. To account for the overall parasite load, an Infection Index was calculated by multiplying these two values; then, to assess the infection inhibition by the compounds, the percentage of Inhibition Parasite Index (IPI) was determined as: IPI = 100 − ((Infection Index in treated cells/Infection Index in untreated cells) * 100).\nThe amastigote IC50 values were calculated for all tested compounds. Selectivity index was also determined for each compound as follows: SI = CC50/IC50. Data were analyzed with Kaleidagraph (Synergy). The statistical significance of differences was determined with the Student’s t-test (* p < 0.05; ** p < 0.01)."}, "[6]": {"experiment": "MTT cytotoxicity assay on THP-1-derived macrophages", "conditions": "human, THP-1-derived macrophages (PMA-differentiated)", "procedure": "The human myelomonocytic cell line, THP-1 was ordered from the American Type Culture Collection (ATCC, TIB-202). [86] Cells were maintained in RPMI 1640/Glutamax-I media (Gibco BRL, Germany) supplemented with 10% heat-inactivated fetal calf serum (Gibco, Germany) plus penicillin G (100 U/ml) and streptomycin (100 g/ml). THP-1 cells were differentiated to macrophages after their treatment with 20 ng/ml phorbol 12-myristate 7-acetate (PMA) (Sigma, St. Louis, MO, USA) for 48 h at 37°C, 5% CO2. [87] […] [87]\nFor the cytotoxicity assay, we used the THP-1-derived macrophages (50,000 cells/well) seeded in 96-well plates and treated with serial concentrations of compounds (final concentrations of 1.5-100 μM) for 24h. After that, an MTT assay was performed as previously described to determine cell viability. [88] Thus, 20 μl of MTT solution (5 mg/ml) were added to each well and incubated at 25°C for 4h. Then, 150 μl of DMSO were added to each well to dissolve the blue formazan and the optical density (OD) was measured at 560 nm with a microplate reader ([sequence], Labsystems).\nThe cell viability of THP-1-derived macrophages was expressed as the percentage of the viable cell number in treated cells relative to the THP-1-derived macrophages treated with 1% DMSO. The 50% cytotoxic concentrations (CC50) were calculated for all the tested compounds by interpolation. All experiments were repeated three times in triplicate for each compound concentration."}, "[7]": {"conditions": "1 μM protein, 1 mM ATP, saturating RNA, read-out: IC50 of eIF4AIMus ATPase activity"}, "[8]": {"conditions": "Leishmania infantum, Macrophage, 24 h"}}, "note": "Like-named read-outs stand apart in the source and are kept apart here.", "data": [{"compound": "7-α/β-aminocholesterol", "values": [{"measurement": "reduction of the number of intracellular L. donovani amastigotes", "setting": "[1]", "value": 59, "unit": "%"}]}, {"compound": "CC(C)CCCC(C)C1CCC2C3CC(N)C4CC(O)CCC4(C)C3CCC12C", "note": "(mixture of isomers) [Compound 208, 6-α/β-aminocholestanol]", "values": [{"measurement": "IC50", "setting": "[2]", "value": "0.15 ± 0.015", "unit": "mM"}, {"measurement": "inhibition at 500 µM", "setting": "[2]; 500 μM compound, phosphate released after 45 min, 96-well screen, read-out: percentage of inhibition of LieIF ATPase activity", "value": 90, "unit": "%"}, {"measurement": "IC50", "setting": "[3]; [7]", "value": "0.115 ± 0.025", "unit": "mM"}, {"measurement": "IC50", "setting": "[4]", "value": "4.1 ± 2.6", "unit": "µM"}, {"measurement": "IC50", "setting": "[5]; [8]", "value": "1.4 ± 0.1", "unit": "µM"}, {"measurement": "CC50 at 24 h", "setting": "[6]", "value": "43.4 ± 0.1", "unit": "µM"}]}, {"compound": "CC(C)CCCC(C)C1CCC2C3CC(N)C4CC(O)CCC4(C)C3CCC12C", "note": "(stereo not drawn) [Compound 20, 6-α-aminocholestanol]", "values": [{"measurement": "IC50", "setting": "[2]", "value": "0.16 ± 0.025", "unit": "mM"}, {"measurement": "effect on the ATPase activity of LieIF in screen", "setting": "[2]", "value": "demonstrated inhibition"}, {"measurement": "IC50", "setting": "[3]; [7]", "value": "0.185 ± 0.025", "unit": "mM"}, {"measurement": "effect on the ATPase activity of eIF4AIMus in screen", "setting": "[3]", "value": "demonstrated inhibition"}, {"measurement": "IC50", "setting": "[4]", "value": "3.6 ± 0.1", "unit": "µM"}, {"measurement": "IC50", "setting": "[5]; [8]", "value": "< 1", "unit": "µM"}, {"measurement": "IC50", "setting": "[5]", "value": 0.9, "unit": "µM"}, {"measurement": "CC50 at 24 h", "setting": "[6]", "value": "35.2 ± 1.3", "unit": "µM"}]}, {"compound": "CC(C)CCCC(C)C1CCC2C3CC(=O)C4CC(O)CCC4(C)C3CCC12C", "note": "(stereo not drawn) [Compound 48, 6-ketocholestanol]", "values": [{"measurement": "IC50", "setting": "[2]", "value": "> 1", "unit": "mM"}, {"measurement": "IC50", "setting": "[2]; read-out: IC50 of LieIF ATPase activity, 1 μM protein, value printed in mM in text", "value": "≤ 1", "unit": "mM"}, {"measurement": "effect on the ATPase activity of LieIF in screen", "setting": "[2]", "value": "demonstrated inhibition"}, {"measurement": "IC50", "setting": "[3]", "value": "> 1", "unit": "mM"}, {"measurement": "IC50", "setting": "[3]; read-out: IC50 of eIF4AIMus ATPase activity, 1 μM protein, value printed in mM in text", "value": "≤ 1", "unit": "mM"}, {"measurement": "effect on the ATPase activity of eIF4AIMus in screen", "setting": "[3]", "value": "demonstrated inhibition"}, {"measurement": "IC50", "setting": "[4]", "value": "39.1 ± 0.8", "unit": "µM"}, {"measurement": "IC50", "setting": "[5]; [8]", "value": "4.2 ± 0.1", "unit": "µM"}, {"measurement": "CC50 at 24 h", "setting": "[6]", "value": "81.4 ± 2.4", "unit": "µM"}]}]}
